Results as given in US20260265305A1, “POLYPEPTIDE DERIVATIVE FOR ORAL DELIVERY” (Hangzhou Sciwind Biosciences Co., Ltd., priority 2023, published 2026).
Read-outs that look alike come from different tables or passages of the source. Numbered stars: 1 amine (or outer) side, 2 acyl side, 3 side chain; on linkers, the order of the positions; unused ones are H or OH. Peptide text beside a SMILES is read from it. * marks the point of attachment. C20 diacid = O=C(O)CCCCCCCCCCCCCCCCCCC(=O)*; γGlu = O=C(O)[C@H](CCC(=O)[*:2])N[*:1]; βAsp = O=C(O)[C@H](CC(=O)[*:2])N[*:1]; Trx = NC[C@H]1CC[C@H](C(=O)O)CC1; AEEA = NCCOCCOCC(=O)O; Inp = O=C(O)C1CCNCC1

Assays:
[1] = biological target: T1, calcitonin receptor (hCTR) (Homo sapiens, UniProt P30988); test: Calcitonin receptor agonism, CRE-luciferase assay in stably transfected CHO-K1/CALCR/Ga15 cells; type: cell-based; settings: for Fold change in activity against hCTR: relative to D1 as benchmark
T1 construct: host or cells: CHO-K1/CALCR/Ga15 cells, further stably transfected with a CRE-luciferase plasmid
T1 sequence (P30988 25-474): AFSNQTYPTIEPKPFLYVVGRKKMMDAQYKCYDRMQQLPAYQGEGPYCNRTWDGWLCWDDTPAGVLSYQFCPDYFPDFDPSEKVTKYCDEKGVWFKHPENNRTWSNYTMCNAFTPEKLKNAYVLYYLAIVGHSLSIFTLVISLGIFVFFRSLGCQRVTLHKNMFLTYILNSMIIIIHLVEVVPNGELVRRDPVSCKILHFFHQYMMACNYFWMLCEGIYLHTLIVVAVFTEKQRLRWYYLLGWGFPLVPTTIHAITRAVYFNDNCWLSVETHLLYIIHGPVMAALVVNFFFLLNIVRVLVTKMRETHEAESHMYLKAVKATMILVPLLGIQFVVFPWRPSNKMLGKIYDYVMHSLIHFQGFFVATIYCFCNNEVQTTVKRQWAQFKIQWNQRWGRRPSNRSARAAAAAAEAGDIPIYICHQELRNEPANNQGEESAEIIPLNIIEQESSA
Method: Using the standard protocol, CHO-K1/CALCR/Ga15 cells (purchased from GenScript, with the calcitonin receptor constructed already) were transfected with a plasmid containing a luciferase expression cassette driven by multiple copies of cAMP response elements (CREs). The cells were cultured in an F12 medium containing 200 ug/mL Zeocin, 2 ug/mL puromycin, and 100 ug/mL hygromycin to afford a stably transfected calcitonin receptor/CRE-luc cell line.
To each well of a white 96-well plate was added 50 μL of the tested sample solution at a respective concentration.
The stably transfected calcitonin receptor/CRE-luc CHO cells were resuspended in the growth medium at a certain density, and 50 μL of the cell suspension was added at a density of about 20,000 cells per well to the white 96-well plate containing the tested sample solution. After incubation of 24 hours at 37° C. and 5% CO2, 100 μL of a Luciferase substrate was added to each well, incubated for 3 minutes, and finally was tested for luminescence on SpectraMax L (Molecular Devices) with the software SoftMax Pro 7.0.3 GxP. A standard curve was plotted using the fluorescent intensities for calculation of EC50.

[2] = Animal study: weight change and accumulated food intake in SD rats after subcutaneous dosing; type: in vivo, SD (Sprague Dawley) rats; settings: 10 nmol/kg subcutaneous; for effect on body weight of SD rats: FIGS. 1 and 3; for effect on accumulated food intake of SD rats: FIGS. 2 and 4
Source text: SD (Sprague Dawley) rats weighing 200-250 g were used for this study. The rats were received at least 10-14 days before the study began such that they could accommodate to the experimental environment. After arrival, they were exposed to a reversed light/dark cycle (i.e., lights switched off in daytime and on in nighttime) for two weeks and were individually housed for the first week so as to ensure high data accuracy and test sensitivity. Throughout the acclimation and experiment period, the rats had free access to food and water. 5-8 rats were assigned to each testing group for the derivatives and were subcutaneously administered the derivatives at a dose of 10 nmol/kg or a vehicle (20 mM phosphate buffer, PB, pH 7.0), and the dosing timepoint was recorded for each group. After dosing, the rats were put back into cages where they were housed and could have access to food and water. Food consumption and weight change of the rats were recorded online or manually every 24 hours. Percent of weight change=(BWTn−BWT0)/BWT0*100%, wherein BW represented the value of body weight, and T0 and Tn represented the time point of dosing and n hours post dose respectively. Dots in the figures were represented utilizing mean±standard error of the mean (SEM).

amylin receptor (hAMY3R) = biological target: T2, amylin receptor (hAMY3R) (Homo sapiens, UniProt O60896+P30988); test: Amylin receptor agonism testing, CRE-luciferase assay in stably transfected CHO-K1/Ga15/AMY3 cells; type: cell-based; settings: for Fold change in activity against hAMY3R: relative to D1 as benchmark
T2 construct: host or cells: CHO-K1/Ga15/AMY3 cells, further stably transfected with a CRE-luciferase plasmid
T2 sequence (P30988 25-474): T1 sequence (P30988 25-474)
T2 sequence (O60896 24-148): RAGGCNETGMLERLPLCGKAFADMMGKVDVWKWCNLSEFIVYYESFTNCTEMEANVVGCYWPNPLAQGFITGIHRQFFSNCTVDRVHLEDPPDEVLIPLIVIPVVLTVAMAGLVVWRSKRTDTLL

[3] = Heat accelerated stability assay of polypeptide solutions (40° C., pH about 7.4), reversed phase chromatography; type: physicochemical; settings: 40° C.; for Concentration change on 26 d / Concentration change on 7 d: pH about 7.4, 1 mg/mL; for Concentration change on 26 d / Purity change on 26 d: Day 26; for Purity change on 7 d / Purity change on 26 d: reversed phase chromatography 214 nm; for Purity change on 7 d / Concentration change on 7 d: Day 7; for Purity change on 7 d: purity on 7 d − purity on 0 d; for Purity change on 26 d: purity on 26 d − purity on 0 d
Method in brief: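 Polypeptide derivative lyophilisate (1 mg/mL) with sodium dihydrogen phosphate (1.42 mg/mL) in water, pH about 7.4, sterile-filtered, vialed and held at 40° C; sampled on days 7 and 26. After centrifugation, concentration and purity (target/total peak area) by C18 RP-HPLC, TFA/ACN gradient, 280 and 214 nm.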

[4] = incubation of 24 hours, Table 4, read-out: EC50, activity against the calcitonin receptor in cells
[5] = incubation of 24 hours, Table 3, read-out: EC50, activity against the amylin receptor in cells

Fold change in activity against hCTR [1]	Fold change in activity against hAMY3R (amylin receptor (hAMY3R))	Concentration change on 26 d [3]	Purity change on 7 d [3]	Purity change on 26 d [3]	EC50 [1, 4] [nM]	EC50 (amylin receptor (hAMY3R); Table 5 integrated analysis, read-out: hAMY3R EC50) [nM]	EC50 ([1]; Table 5 integrated analysis, read-out: hCTR EC50) [nM]	EC50 (amylin receptor (hAMY3R); [5]) [nM]	Compound	effect on body weight of SD rats [2]	effect on accumulated food intake of SD rats [2]	Concentration change on 7 d [3]
0.161	9.000	−2.286%	No change	−1.27%	–	–	–	–	CC(C)C[C@H](NC(=O)[C@H](CCCNC(=N)N)NC(=O)CNC(=O)[C@H](CC(C)C)NC(=O)[C@@H](NC(=O)[C@H](C)NC(=O)[C@@H](NC(=O)[C@H](CO)NC(=O)[C@H](CC(C)C)NC(=O)[C@H](CCC(N)=O)NC(=O)[C@H](CO)NC(=O)[C@H](C)NC(=O)COCCOCCNC(=O)COCCOCCNC(=O)[C@H]1CC[C@H](CNC(=O)CCCCCCCCCCCCCCCCCCC(=O)O)CC1)[C@@H](C)O)C(C)C)C(=O)N[C@@H](CO)C(=O)N[C@@H](CC(=O)O)C(=O)N[C@@H](CCC(=O)O)C(=O)N[C@@H](CC(C)C)C(=O)N[C@@H](Cc1c[nH]cn1)C(=O)N[C@@H](CCCNC(=N)N)C(=O)N[C@@H](CC(C)C)C(=O)N[C@@H](CCC(N)=O)C(=O)N[C@@H](CC(=O)O)C(=O)N[C@@H](Cc1ccc(O)cc1)C(=O)N1CCC[C@H]1C(=O)N[C@@H](CCCNC(=N)N)C(=O)N[C@H](C(=O)N[C@@H](CC(=O)O)C(=O)N[C@H](C(=O)NCC(=O)N[C@@H](CO)C(=O)NCC(=O)N[C@@H](CO)C(=O)N1CCC[C@H]1C(N)=O)C(C)C)[C@@H](C)O [M27] ({C20 diacid-Trx-AEEA-AEEA}-ASQLSTAVLGRLSDELHRLQDYPRTDVGSGSP-NH2)	apparently further reduced	apparently further reduced	–
1.246	2.25	−1.148%	No change	nearly no noticeable change in purity	0.069	0.016	–	–	CC(C)C[C@H](NC(=O)[C@H](CCCNC(=N)N)NC(=O)CNC(=O)[C@H](CC(C)C)NC(=O)[C@@H](NC(=O)[C@H](C)NC(=O)[C@@H](NC(=O)[C@H](CO)NC(=O)[C@H](CC(C)C)NC(=O)[C@H](CCC(N)=O)NC(=O)[C@H](CO)NC(=O)[C@H](C)NC(=O)COCCOCCNC(=O)COCCOCCNC(=O)CC[C@H](NC(=O)CCCCCCCCCCCCCCCCCCC(=O)O)C(=O)O)[C@@H](C)O)C(C)C)C(=O)N[C@@H](CO)C(=O)N[C@@H](CC(=O)O)C(=O)N[C@@H](CCC(=O)O)C(=O)N[C@@H](CC(C)C)C(=O)N[C@@H](Cc1c[nH]cn1)C(=O)N[C@@H](CCCNC(=N)N)C(=O)N[C@@H](CC(C)C)C(=O)N[C@@H](CCC(N)=O)C(=O)N[C@@H](CC(=O)O)C(=O)N[C@@H](Cc1ccc(O)cc1)C(=O)N1CCC[C@H]1C(=O)N[C@@H](CCCNC(=N)N)C(=O)N[C@H](C(=O)N[C@@H](CC(=O)O)C(=O)N[C@H](C(=O)NCC(=O)N[C@@H](CO)C(=O)NCC(=O)N[C@@H](CO)C(=O)N1CCC[C@H]1C(N)=O)C(C)C)[C@@H](C)O [M18] ({C20 diacid-γGlu-AEEA-AEEA}-ASQLSTAVLGRLSDELHRLQDYPRTDVGSGSP-NH2)	apparently further reduced	apparently further reduced	No change (concentration change of less than 1% (denoted as “no change”))
0.623	2.118	−2.645%	−2.45%	−5.24%	0.138	–	–	0.017	CC(C)C[C@H](NC(=O)[C@H](CCCNC(=N)N)NC(=O)CNC(=O)[C@H](CC(C)C)NC(=O)[C@@H](NC(=O)[C@H](C)NC(=O)[C@@H](NC(=O)[C@H](CO)NC(=O)[C@H](CC(C)C)NC(=O)[C@H](CCC(N)=O)NC(=O)[C@H](CO)NC(=O)[C@H](C)NC(=O)COCCOCCNC(=O)COCCOCCNC(=O)C[C@H](NC(=O)CCCCCCCCCCCCCCCCCCC(=O)O)C(=O)O)[C@@H](C)O)C(C)C)C(=O)N[C@@H](CO)C(=O)N[C@@H](CC(=O)O)C(=O)N[C@@H](CCC(=O)O)C(=O)N[C@@H](CC(C)C)C(=O)N[C@@H](Cc1c[nH]cn1)C(=O)N[C@@H](CCCNC(=N)N)C(=O)N[C@@H](CC(C)C)C(=O)N[C@@H](CCC(N)=O)C(=O)N[C@@H](CC(=O)O)C(=O)N[C@@H](Cc1ccc(O)cc1)C(=O)N1CCC[C@H]1C(=O)N[C@@H](CCCNC(=N)N)C(=O)N[C@H](C(=O)N[C@@H](CC(=O)O)C(=O)N[C@H](C(=O)NCC(=O)N[C@@H](CO)C(=O)NCC(=O)N[C@@H](CO)C(=O)N1CCC[C@H]1C(N)=O)C(C)C)[C@@H](C)O [M25] ({C20 diacid-βAsp-AEEA-AEEA}-ASQLSTAVLGRLSDELHRLQDYPRTDVGSGSP-NH2)	apparently further reduced	apparently further reduced	−1.222%

Compound	Fold change in activity against hCTR [1]	Fold change in activity against hAMY3R (amylin receptor (hAMY3R))	Concentration change on 26 d [3]	Purity change on 7 d [3]	Purity change on 26 d [3]	EC50 [1, 4] [nM]	EC50 (amylin receptor (hAMY3R); Table 5 integrated analysis, read-out: hAMY3R EC50) [nM]	EC50 ([1]; Table 5 integrated analysis, read-out: hCTR EC50) [nM]	EC50 (amylin receptor (hAMY3R); [5]) [nM]	effect on body weight of SD rats [2]	effect on accumulated food intake of SD rats [2]	Concentration change on 7 d [3]
CC(C)C[C@H](NC(=O)[C@H](CCCNC(=N)N)NC(=O)CNC(=O)[C@H](CC(C)C)NC(=O)[C@@H](NC(=O)[C@H](C)NC(=O)[C@@H](NC(=O)[C@H](CO)NC(=O)[C@H](CC(C)C)NC(=O)[C@H](CCC(N)=O)NC(=O)[C@H](CO)NC(=O)[C@H](C)NC(=O)COCCOCCNC(=O)COCCOCCNC(=O)C1CCN(C(=O)CCCCCCCCCCCCCCCCCCC(=O)O)CC1)[C@@H](C)O)C(C)C)C(=O)N[C@@H](CO)C(=O)N[C@@H](CC(=O)O)C(=O)N[C@@H](CCC(=O)O)C(=O)N[C@@H](CC(C)C)C(=O)N[C@@H](Cc1c[nH]cn1)C(=O)N[C@@H](CCCNC(=N)N)C(=O)N[C@@H](CC(C)C)C(=O)N[C@@H](CCC(N)=O)C(=O)N[C@@H](CC(=O)O)C(=O)N[C@@H](Cc1ccc(O)cc1)C(=O)N1CCC[C@H]1C(=O)N[C@@H](CCCNC(=N)N)C(=O)N[C@H](C(=O)N[C@@H](CC(=O)O)C(=O)N[C@H](C(=O)NCC(=O)N[C@@H](CO)C(=O)NCC(=O)N[C@@H](CO)C(=O)N1CCC[C@H]1C(N)=O)C(C)C)[C@@H](C)O [M29] ({C20 diacid-Inp-AEEA-AEEA}-ASQLSTAVLGRLSDELHRLQDYPRTDVGSGSP-NH2)	0.551	6.000	No change (concentration change of less than 1% (denoted as “no change”))	No change	−1.2%	–	–	0.156	0.006	apparently further reduced	apparently further reduced	–
